Experimental data taken from US5707966A, “Antithrombotic agents” (Eli Lilly and Company, priority 1995, dated 1998).
Counter-ions that a name gives are not always drawn. Like-named read-outs stand apart in the source and are kept apart here.

Key:
Assay type in all cases: biochemical
Human plasma [1] = assay: Human plasma anticoagulation, prothrombin time (PT); conditions: concentration required to double the PT, linear extrapolation
Experimental: (§1) Dog plasma and rat plasma is obtained from conscious mixed-breed hounds (either sex, Hazelton-LRE, Kalamazoo, Mich., U.S.A.) or from anesthetized male Sprague-Dawley rats (Harlan Sprague-Dawley, Inc., Indianapolis, Ind., U.S.A.) by venipuncture into 3.8 percent citrate. Fibrinogen is prepared from in-date ACD human blood as the fraction I-2 according to previous procedures and specifications. […] Human fibrinogen is also purchased as 98 percent pure/plasmin free from American Diagnostica, Greenwich, Conn. Coagulation reagents ACTIN, Thromboplastin, and Human plasma are from Baxter Healthcare Corp., Dade Division, Miami, Fla. Bovine thrombin from Parke-Davis ([…], Mich.) is used for coagulation assays in plasma.
(§2) Coagulation assay procedures are as previously described. […] A CoAScreener coagulation instrument (American LABor, Inc.) is used for all coagulation assay measurements. The prothrombin time (PT) is measured by adding 0.05 mL saline and 0.05 mL Thromboplastin-C reagent to 0.05 mL test plasma. The activated partial thromboplastin time (APTT) is measured by incubation of 0.05 mL test plasma with 0.05 mL Actin reagent for 120 seconds followed by 0.05 mL CaCl2 (0.02M). The thrombin time (TT) is measured by adding 0.05 mL saline and 0.05 mL thrombin (10 NIH units/mL) to 0.05 mL test plasma. The compounds of Formula I are added to human or animal plasma over a wide range of concentrations to determine prolongation effects on the APTT, PT, and TT assays. Linear extrapolations are performed to estimate the concentrations required to double the clotting time for each assay.

Human Thrombin = Human Thrombin (Homo sapiens, UniProt P00734); assay: Inhibition of amidase activity of thrombin (Kass)
Bovine trypsin = molecular target: T1, Bovine trypsin (Bos taurus, UniProt P00760); assay: Kass with trypsin, chromogenic substrate; conditions: substrate N-Benzoyl-Phe-Val-Arg-p-nitroanilide
T1 construct: Bovine trypsin is purchased; purchased Worthington Biochemicals, Freehold, N.J
T1 sequence (P00760 24-246): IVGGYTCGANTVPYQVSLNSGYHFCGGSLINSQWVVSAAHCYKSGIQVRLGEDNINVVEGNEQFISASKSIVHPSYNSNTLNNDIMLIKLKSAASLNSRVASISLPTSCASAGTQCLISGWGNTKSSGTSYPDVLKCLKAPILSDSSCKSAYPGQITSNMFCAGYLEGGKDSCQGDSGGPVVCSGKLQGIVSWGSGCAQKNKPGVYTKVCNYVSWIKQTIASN
Experimental: By substantially following the procedures described above for human thrombin, and using other human blood coagulation system serine proteases and proteases of the fibrinolytic system with the appropriate chromogenic substrates, identified below, selectivity of the compounds of the present invention with respect to the coagulation factor serine proteases and with respect to the fibrinolytic system serine proteases are evaluated as well as their substantial lack of interference with serine proteases of the fibrinolytic system. Thrombin inhibitors preferably should spare fibrinolysis induced by urokinase, tissue plasminogen activator (t-PA) and streptokinase. This would be important to the therapeutic use of such agents as an adjunct to streptokinase, t-PA or urokinase thrombolytic therapy and to the use of such agents as an endogenous fibrinolysis-sparing (with respect to t-PA and urokinase) antithrombotic agent. In addition to the lack of interference with the amidase activity of the fibrinolytic proteases, such fibrinolytic system sparing can be studied by the use of human plasma clots and their lysis by the respective fibrinolytic plasminogen activators.
Human factors X, Xa, IXa, XIa, and XIIa are purchased from Enzyme Research Laboratories, South Bend, Ind.; human urokinase from Leo Pharmaceuticals, Denmark; and recombinant activated Protein C (aPC) is prepared at Eli Lilly and Co. substantially according to U.S. Patent No. 4,981,952. Chromogenic substrates: N-Benzoyl-Ile-Glu-Gly-Arg-p-nitroanilide (for factor Xa); N-Cbz-D-Arg-Gly-Arg-p-nitroanilide (for factor IXa assay as the factor Xa substrate); Pyroglutamyl-Pro-Arg-p-nitroanilide (for Factor XIa and for aPC); H-D-Pro-Phe-Arg-p-nitroanilide (for factor XIIa); and Pyroglutamyl-Gly-Arg-p-nitroanilide (for urokinase); are purchased from KabiVitrum, Stockholm, Sweden, or from Midwest Biotech, Fishers, Ind. Bovine trypsin is purchased from Worthington Biochemicals, Freehold, N.J., and human plasma kallikrein from Kabi Vitrum, Stockholm, Sweden. Chromogenic substrate H-D-Pro-Phe-Arg-p-nitroanilide for plasma kallikrein is purchased from Kabi Vitrum, Stockholm, Sweden. N-Benzoyl-Phe-Val-Arg-p-nitroanilide, the substrate for human thrombin and for trypsin, is synthesized according to procedures described above for the compounds of the present invention, using known methods of peptide coupling from commercially available reactants or purchased from Midwest Biotech, Fishers, Ind.

Human plasma [2] = assay: Human plasma anticoagulation, thrombin time (TT); conditions: concentration required to double the thrombin time, linear extrapolation
Experimental: as §1, §2

Human plasma [3] = assay: Human plasma anticoagulation, activated partial thromboplastin time (APTT); conditions: concentration required to double the APTT, linear extrapolation
Experimental: as §1, §2

[4] = mean over a range of concentrations, […]

Row | SMILES | Human Plasma Anticoagulation 2× Clotting time PT (Human plasma [1]) | Kass Human Thrombin (Human Thrombin; [4]) | Kass Trypsin (Bovine trypsin) | Human Plasma Anticoagulation 2× Clotting time TT (Human plasma [2]) | Human Plasma Anticoagulation 2× Clotting time APTT (Human plasma [3]) | Kass Human Thrombin (Human Thrombin)
1 | CCS(=O)(=O)N[C@H](Cc1ccccc1)C(=O)N1CCC[C@H]1C(=O)NCCc1cccc(NC(=N)N)c1 [Example 37, EtSO2 -D-Phe-Pro-m-NHCH2 CH2 C6 H4 NHC(NH)NH2.HCl] | > 9,000 ng/mL | 0.02 × 10^6 (L/mole) | < 0.009 × 10^6 (L/mole) | > 9,000 ng/mL | > 9,000 ng/mL | 
2 | N=C(N)c1ccc(CNC(=O)[C@@H]2CCCN2C(=O)[C@@H](CC2CCCCC2)NCC(=O)O)nc1 [Example 66, HO2 CCH2 -D-Cha-Pro-2-NHCH2 -5-amidinopyridine.HCl] | 270 ng/mL | 120 × 10^6 (L/mole) | 4.6 × 10^6 (L/mole) | 7.9 ng/mL | 180 ng/mL | 
3 | N=C(N)c1ccc(CNC(=O)[C@@H]2CCCN2C(=O)[C@@H](CC2CCCCC2)NCC(=O)O)nn1 [Example 69, HO2 CCH2 -D-Cha-Pro-3-NHCH2 -6-amidinopyridazine.HCl] | 220 ng/mL | 340 × 10^6 (L/mole) | 3.7 × 10^6 (L/mole) | 5 ng/mL | 110 ng/mL | 
4 | N=C(N)N1CC=C(CNC(=O)[C@@H]2CCCN2C(=O)[C@@H](CC2CCCCC2)NCC(=O)O)CC1 [Example 70, HO2 CCH2 -D-Cha-Pro-4-NHCH2 -1-amidino-3,4-dehydro-piperidine.HCl] | 180 ng/mL | 430 × 10^6 (L/mole) | 9.8 × 10^6 (L/mole) | 2 ng/mL | 160 ng/mL | 
5 | N=C(N)c1ccc(CNC(=O)[C@@H]2CCCN2C(=O)[C@@H](CC2CCCCC2)NCC(=O)O)c(F)c1 [Example 71, HO2 CCH2 -D-Cha-Pro-4-NHCH2 -3-F-benzamidine.HCl] | 150 ng/mL | 1,400 × 10^6 (L/mole) | 240 × 10^6 (L/mole) | 1 ng/mL | 89 ng/mL | 
6 | N=C(N)c1cc(F)c(CNC(=O)[C@@H]2CCCN2C(=O)[C@@H](CC2CCCCC2)NCC(=O)O)c(F)c1 [Example 72, HO2 CCH2 -D-Cha-Pro-4-NHCH2 -3,5-F2 -benzamidine.HCl] | 160 ng/mL | 2,300 × 10^6 (L/mole) | 280 × 10^6 (L/mole) | 1 ng/mL | 160 ng/mL | 
7 | Nc1cc(CCNC(=O)[C@@H]2CCCN2C(=O)[C@@H](CC2CCCCC2)NCC(=O)O)ccn1 [Example 76, HO2 CCH2 -D-Cha-Pro-4-NHCH2 CH2 -2-aminopyridine.HCl] | 560 ng/mL | 12 × 10^6 (L/mole) | 0.36 × 10^6 (L/mole) | 29 ng/mL | 490 ng/mL | 
8 | NCc1ccc(CNC(=O)[C@@H]2CCCN2C(=O)[C@@H](CC2CCCCC2)NCC(=O)O)cc1 [Example 78, HO2 CCH2 -D-Cha-pro-4-NHCH2 C6 H4 CH2 NH2.HCl] | 760 ng/mL |  | 8.6 × 10^6 (L/mole) | 46 ng/mL | 430 ng/mL | 11
9 | NCC1CCC(CNC(=O)[C@@H]2CCCN2C(=O)[C@@H](CC2CCCCC2)NCC(=O)O)CC1 (stereo partly drawn) [Example 79, HO2 CCH2 -D-Cha-Pro-4-NHCH2 C6 H10 CH2 NH2.HCl] | 2,400 ng/mL | 2.0 × 10^6 (L/mole) | 0.24 × 10^6 (L/mole) | 140 ng/mL | 1,700 ng/mL | 
10 | CCS(=O)(=O)N[C@H](CC1CCCCC1)C(=O)N1CCC[C@H]1C(=O)NCc1ccc(C(=N)N)cc1.Cl [Example 80, EtSO2 -D-Cha-Pro-4-NHCH2 C6 H4 C(NH)NH2.HCl] | 130 ng/mL | 1,700 × 10^6 (L/mole) | 90 × 10^6 (L/mole) | 4 ng/mL | 40 ng/mL | 
11 | CCS(=O)(=O)N[C@H](CC1CCCCC1)C(=O)N1CCC[C@H]1C(=O)NCc1ccc(CN)cc1 [Example 81, EtSO2 -D-Cha-Pro-4-NHCH2 C6 H4 CH2 NH2.HCl] | 2,700 ng/mL | 5.3 × 10^6 (L/mole) | 2.1 × 10^6 (L/mole) | 110 ng/mL | 1,500 ng/mL | 
12 | CCS(=O)(=O)N[C@H](CC1CCCCC1)C(=O)N1CCC[C@H]1C(=O)NCc1ccnc(N)c1 [Example 83, EtSO2 -D-Cha-Pro-4-NHCH2 -2-aminopyridine.HCl] | 1,300 ng/mL | 2.4 × 10^6 (L/mole) | 0.03 × 10^6 (L/mole) | 91 ng/mL | 1,000 ng/mL | 
13 | CCS(=O)(=O)N[C@H](CC1CCCCC1)C(=O)N1CCC[C@H]1C(=O)NCc1ccc(N)nc1 [Example 84, EtSO2 -D-Cha-Pro-5-NHCH2 -2-aminopyridine.HCl] | 1,900 ng/mL | 2.9 × 10^6 (L/mole) | 0.07 × 10^6 (L/mole) | 110 ng/mL | 1,500 ng/mL | 
